From patent EP4707393A1, “DOUBLE-STRANDED SIRNA, CONJUGATE THEREOF AND USE THEREOF” (CMS Research & Development Pte. Ltd., priority 2023, dated 2024)

System: human LPA gene (Genbank number: NM_005577.4)
Test: Inhibitory activity against LPA mRNA, psiCHECK-2 dual-luciferase reporter vector in Huh7 cells
Type: cell-based
Conditions: Huh7 cells transfected with LPA_psiCHECK-2 plasmid, RNAiMAX transfection
Experimental: A stock solution was prepared by dissolving in PBS and stored at -20 °C.
The human LPA gene (Genbank number: NM_005577.4) was cloned into the psiCHECK™-2 vector.
Huh7 cells were cultured in DMEM (Gibco-11995-065, 500 mL) medium, supplemented with FBS (ExCellBio-FSP500, 57 mL), Penicillin-Streptomycin solution (Hyclone-SV30010, 5.7 mL), GlutaMAX™ (Gibco-35050-061, 5.7 mL) and Non-Essential Amino Acids Solution (Gibco-11140050, 5.7 mL).
On Day 1, a method for transfection of the LPA_PSICHECK (TM)-2 plasmid is briefly described as follows: Huh7 cells were washed with DPBS, followed by digestion with 0.05% trypsin, gently pipetted into single cells in DMEM containing 10% FBS, and counted. Plasmid DNA was transferred into Huh7 cells using Fugene HD. The transfected cells were seeded into 96-well plates at a density of 10,000 cells per well, with 100 µL culture medium per well. The cells were incubated overnight in a 5% CO2 incubator at 37 °C.
On Day 2, the test compounds were diluted serially with PBS to 3 concentrations.
RNAiMAX transfection reagent was prepared by blending homogeneously with Opti-MEM at a ratio of RNAiMAX: Opti-MEM=3:47 in a 15 mL centrifuge tube as needed. The compounds were mixed with the RNAiMAX/Opti-MEM (1:1) and incubated for 15 min. The compound-containing RNAiMAX/Opti-MEM mixture was diluted 10-fold with fresh medium and blended homogeneously.
The medium in each well was aspirated, and then 100 µL of the fresh compound-containing medium was added, and then incubated in a 5% CO2, 37 °C incubator.
Experimental procedures refer to DUAL-GLO® Dual Luciferase Assay System instructions, briefly described as follows: Taking out the cells from the incubator, aspirating and discarding the supernatant, adding 75µL fresh culture medium and 75µL detection reagent, shaking for 10 minutes in the dark, and after the cells had been fully lysed, transfering100µL sample to an opaque whiteboard for detecting the Firefly luminescence signal; adding 50 µL Dual-Glo®Stop & Glo® test reagent to each well and detecting the Renilla luciferase signal after shaking for 10 minutes in the dark. The ratio of the reporter signal to the internal control reporter signal was calculated for each well.
[formula] % Inhibition = (1-Sampleratio/RNAiMAXcontrolratio) × 100% [formula]

In order of falling EC50:
1. Z10: siRNA conjugate: sense SEQ ID NO:34, ligand D08 at 3' end of sense strand, antisense SEQ ID NO:56 (sense CCCTTATTGTTATACG; antisense ATCCCTCGTANAACAATAAGGGGCTGTT; 2'-OMe/2'-F modified, ligand at sense 3' end, full pattern not given here)  2.11 nM
2. Z9: siRNA conjugate: sense SEQ ID NO:33, ligand D08 at 3' end of sense strand, antisense SEQ ID NO:56 (sense CCCTTATTGTTATACG; antisense ATCCCTCGTANAACAATAAGGGGCTGTT; ligand D08 at sense 3' end; listed as RNA; modified_base 1..2: mod_base = OTHER; note = 2'-O-methylcytidine; modified_base 3: mod_base = OTHER; modified_base 4..5: mod_base = OTHER; note = 2'-O-methyluridine; modified_base 6: mod_base = OTHER; note = 2'-O-me; modified_base 1: mod_base = OTHER; note = 2'-O-methyladenosine; modified_base 2: mod_base = OTHER; note = 2'-O-met)  1.77 nM
3. Z14: siRNA conjugate: sense SEQ ID NO:27, ligand D08 at 3' end of sense strand, antisense SEQ ID NO:62 (sense CCCTTATTGTTATACG; antisense ATCCCTCGTANAACAATAAGGGGCTGTT; 2'-OMe/2'-F modified, ligand at sense 3' end, full pattern not given here)  1.59 nM
4. Z17: siRNA conjugate: sense SEQ ID NO:36, ligand D01 at 3' end of sense strand, antisense SEQ ID NO:63 (sense NNCCCCTTATTGTTATACN; antisense ATCCCTCGTANAACAATAAGGGGCTG; 2'-OMe/2'-F modified, ligand at sense 3' end, full pattern not given here)  1.5 nM
5. Z8: siRNA conjugate: sense SEQ ID NO:32, ligand D08 at 3' end of sense strand, antisense SEQ ID NO:56 (sense CCCTTATTGTTATACG; antisense ATCCCTCGTANAACAATAAGGGGCTGTT; 2'-OMe/2'-F modified, ligand at sense 3' end, full pattern not given here)  0.81 nM
6. Z25: siRNA conjugate: sense SEQ ID NO:41, ligand D18 at 3' end of sense strand, antisense SEQ ID NO:64 (sense NNCCCCTTATTGTTATACGNGA; antisense TCTCGTANAACAATAAGGGGCTGTT; ligand D18 at sense 3' end; listed as RNA; modified_base 1: mod_base = OTHER; note = n is invAb; modified_base 2: mod_base = OTHER; note = n is R; modified_base 3..6: mod_base = OTHER; note = 2'-O-methylcytidine; modified_base 7: mod_base = OTHER; note = 2'-O-methyluridine; modified_ba; modified_base 3: mod_base = OTHER; modified_base 4: mod_base = OTHER; note = 2'-fluorocytidine; modified_base 5: mod_base = OTHER; note = 2'-O-methylg)  0.68 nM
7. Z11: siRNA conjugate: sense SEQ ID NO:27, ligand D08 at 3' end of sense strand, antisense SEQ ID NO:59 (sense CCCTTATTGTTATACG; antisense ATCCCTCGTANAACAATAAGGGGCTGCC; 2'-OMe/2'-F modified, ligand at sense 3' end, full pattern not given here)  0.56 nM
8. Z20: siRNA conjugate: sense SEQ ID NO:27, ligand D01 at 3' end of sense strand, antisense SEQ ID NO:56 (sense CCCTTATTGTTATACG; antisense ATCCCTCGTANAACAATAAGGGGCTGTT; 2'-OMe/2'-F modified, ligand at sense 3' end, full pattern not given here)  0.51 nM
9. Z21: siRNA conjugate: sense SEQ ID NO:36, ligand D01 at 3' end of sense strand, antisense SEQ ID NO:64 (sense NNCCCCTTATTGTTATACN; antisense TCTCGTANAACAATAAGGGGCTGTT; 2'-OMe/2'-F modified, ligand at sense 3' end, full pattern not given here)  0.44 nM
10. Z13: siRNA conjugate: sense SEQ ID NO:27, ligand D08 at 3' end of sense strand, antisense SEQ ID NO:61 (sense CCCTTATTGTTATACG; antisense ATCCCTCGTANAACAATAAGGGGCTGTT; 2'-OMe/2'-F modified, ligand at sense 3' end, full pattern not given here)  0.42 nM
11. Z12: siRNA conjugate: sense SEQ ID NO:27, ligand D08 at 3' end of sense strand, antisense SEQ ID NO:60 (sense CCCTTATTGTTATACG; antisense ATCCCTCGTANAACAATAAGGGGCTG; 2'-OMe/2'-F modified, ligand at sense 3' end, full pattern not given here)  0.32 nM
12. Z22: siRNA conjugate: sense SEQ ID NO:38, ligand D18 at 3' end of sense strand, antisense SEQ ID NO:64 (sense NNCCCCTTATTGTTATACNA; antisense TCTCGTANAACAATAAGGGGCTGTT; 2'-OMe/2'-F modified, ligand at sense 3' end, full pattern not given here)  0.28 nM
13. Z18: siRNA conjugate: sense SEQ ID NO:36, ligand D01 at 3' end of sense strand, antisense SEQ ID NO:61 (sense NNCCCCTTATTGTTATACN; antisense ATCCCTCGTANAACAATAAGGGGCTGTT; 2'-OMe/2'-F modified, ligand at sense 3' end, full pattern not given here)  0.25 nM
14. Z15: siRNA conjugate: sense SEQ ID NO:27, ligand D08 at 3' end of sense strand, antisense SEQ ID NO:63 (sense CCCTTATTGTTATACG; antisense ATCCCTCGTANAACAATAAGGGGCTG; 2'-OMe/2'-F modified, ligand at sense 3' end, full pattern not given here)  0.23 nM
15. Z23: siRNA conjugate: sense SEQ ID NO:39, ligand D18 at 3' end of sense strand, antisense SEQ ID NO:64 (sense NNCCCCTTATTGTTATACGN; antisense TCTCGTANAACAATAAGGGGCTGTT; 2'-OMe/2'-F modified, ligand at sense 3' end, full pattern not given here)  0.12 nM
